# Assay results published in patent US20060276372A1, “Carotenoids, carotenoid analogs, or carotenoid derivatives for the treatment of proliferative disorders” (priority 2005, published 2006).
# Like-named read-outs stand apart in the source and are kept apart here.
# Key:
# [1] = system: CX43; assay: CX43 plaques by indirect immunofluorescence in 10T1/2 cells; type: cell-based, Mouse; details: 4 days; for CX43 immunoreactive plaques / gap junction assembly: 10^−8 M
# Procedure: Analysis of CX43 protein by indirect immunofluorescence. Expression and assembly of CX43 into plaques was assessed by immunofluorescence staining essentially as described in Rogers et al, 1990, which is incorporated herein by reference. Briefly, confluent cultures of 10T1/2 cells were grown on Permanox plastic 4-chamber slides (Nalge Nunc International, Naperville, Ill.) and treated for 4 days as described above. Cells were fixed with −20° C. methanol overnight, washed in buffer, blocked in 1% bovine serum albumin (Sigma, St. Louis, Mo.) in PBS, incubated with the rabbit anti-CX43 antibody, and visualized with Alexa568 conjugated anti-rabbit secondary antibody (Molecular Probes, Eugene, Oreg.). Images were acquired with a Zeiss Axioplan microscope and a Roper Scientific cooled CCD camera.
# [2] = system: CX43 protein; assay: CX43 protein expression in 10T1/2 cells by Western blotting (Example 1); type: cell-based, Mouse; details: 4 days
# Procedure: Cell lines and culture conditions. Mouse embryonic fibroblast 10T1/2 cells were cultured in Eagle's basal medium with Earle's salts supplemented with 4% fetal calf serum (Atlanta Biologicals, Norcross, Ga.), 25 μg/ml gentamicin sulfate (Sigma, St. Louis, Mo.), and passaged by trypsin/EDTA (Gibco Invitrogen, Carlsbad, Calif.) and maintained at 37° C. in a 5% CO2 atmosphere. The cells were allowed to grow until a monolayer was formed. The confluent cells were treated 7 days after seeding, unless otherwise indicated. dAST was prepared in a formulation of 20% EtOH and sterile water (0.2% final EtOH ) to minimize supramolecular aggregation, and the final concentration of EtOH in culture medium was 0.2%. CTX was dissolved in THF and added to media. TTNPB was dissolved in acetone (Sigma, St. Louis, Mo.) and cultures received a final acetone concentration of 0.1%.
# Analysis of CX43 protein expression. Expression of CX43 protein in 10T1/2 cells was assessed by Western blotting. 10T1/2 cell monolayers were treated with the indicated carotenoid derivatives or with retinoids (as a positive control for the modulation of CX43 expression) 7 days after seeding in 100 mm dishes (Fisher Scientific, Pittsburgh, Pa.). Fours days after the drug was added to the cells, the cells were harvested, total cellular protein was isolated and the total protein concentration thereof was determined using a commercially available Protein Assay Reagent kit (Pierce Chemical Co., Rockford, Ill.). 40 μg of total cellular protein was resolved on an SDS-PAGE gel, transferred to a nitrocellulose membrane, and analyzed by Western blotting using the NuPage Western blotting kit (Invitrogen, Carlsbad, Calif.). CX43 was detected using a rabbit polyclonal antibody (Zymed, San Francisco, Calif.) raised against a synthetic polypeptide corresponding to the C-terminal domain common to mouse, human and rat CX43. Equal protein loafing was verified by immunoblotting for GAPDH, the expression of which is unaffected by treatment with retinoids or carotenoids, using a rabbit polyclonal GAPDH antibody was also used (Zymed, San Francisco, Calif.). CX43 and GAPDH immunoreactive bands were visualized by chemiluminescence using an anti-rabbit HRP-conjugated secondary antibody (Pierce Chemical Co., Rockford, Ill.). Images were obtained by exposure to X-ray film as previously described and scanned for digital analysis on the Fluoro-S Imager (Bio-Rad, Richmond, Calif.).
# [3] = system: 10T1/2 cells; assay: Gap junctional communication, scrape-loading dye transfer assay; type: cell-based, Mouse; details: 7 days
# Procedure: Gap junctional communication assay. Junctional permeability was assayed by the scrape-loading dye transfer assay essentially as described in El-Fouly et al., 1987, which is incorporated herein by reference. Briefly, confluent cultures of 10T1/2 cells grown in 60 mm dishes were treated with the indicated compounds for 7 days. The treated cells were washed with Ca^+2-free phosphate-buffered saline (PBS). 1.5 ml of Lucifer Yellow CH (Sigma, St. Louis, Mo.) 0.2% in PBS was then added, and linear cuts were made on the monolayer using a surgical scalpel. The cultures were incubated for 2 minutes at 37° C. then rinsed thoroughly with PBS. The cultures were then fixed with 2 ml of 5% formaldehyde in PBS. Images were digitally quantitated by intensity thresholding using the SigmaScan software program (Jandel Scientific, San Rafael, Calif.).
# [4] = system: 10T1/2 cells; type: cell-based, Mouse; details: for % Inhibition of MCA-induced transformation: 4 week period; for Foci/dish (mean Type II + Type III foci, 24 dishes): 4 week period after MCA
# Procedure: Inhibition of MCA-induced neoplastic transformation in 10T1/2 cells. Cells were initiated with methylcholanthrene (MCA) […] (Sigma, St. Louis, Mo.) in acetone for 24 hours. Potential inhibitors of neoplastic transformation were added 7 days after removal of carcinogen as indicated and were renewed weekly by adding fresh medium supplemented with the appropriate drug for four weeks after removal of the carcinogen. The cultures were fixed and stained as described above. A total of 24 dishes of cells were used per treatment group. Type II and III foci were identified and then quantitated as described in Bertram et al., 1990, which is incorporated herein by reference.
# Statistical analysis. Transformation data was analyzed by one-tailed, two-sample t-tests that incorporated unequal variances. The scrape-loading data was analyzed by paired t-tests.
# [5] = Determination of aqueous solubility/dispersibility; type: physicochemical
# Procedure: (§1) Determination of aqueous solubility/dispersibility. 30.13 mg of 3 was added to 1 mL of USP-purified water. The sample was rotated for 2 hours, then centrifuged for 5 minutes. After centrifuging, solid was visible in the bottom of the tube. A 125-μL aliquot of the solution was then diluted to 25 mL. The sample was analyzed by UV/Vis spectroscopy at 436 nm, and the absorbance was compared to a standard curve compiled from 4 standards of known concentration. The concentration of the original supernatant was calculated to be 2.85 mg/mL and the absorptivity was 36.94 AU*mL/cm*mg. Slight error may have been introduced by the small size of the original aliquot.
# as §1, with “Next, 30.80” for “Determination of aqueous solubility/dispersibility. 30.13”, “9” for “3”, “UViis” for “UV/Vis”, “411” for “436”, “The concentration of the original supernatant was calculated to be 2.85 mg/mL and the absorptivity was 36.94 AU*mL/cm*mg.” left out
# Determination of aqueous solubility/dipsersibility of pAST. 23.70 mg of tetrasodium diphosphate astaxanthin was added to 1 ml of USP purified water. The mixture was stirred for 2 hours, and centrifuged for 5 minutes. The solution was diluted in water and analyzed by UV/vis spectroscopy at 480 nm and absorbance was compared to a standard curve compiled from 4 standards of known concentration.
# [6] = system: superoxide anion; assay: Direct superoxide anion scavenging by EPR spectroscopy (DEPMPO spin trap), PMA-stimulated isolated human PMNs; type: cell-based
# Procedure: Leukocyte Isolation and Preparation. Human polymorphonuclear leukocytes (PMNs) were isolated from freshly sampled venous blood of a single volunteer by Percoll density gradient centrifugation as described previously. Briefly, each 10 mL of whole blood was mixed with 0.8 mL of 0.1 M EDTA and 25 mL of saline. The diluted blood was then layered over 9 mL of Percoll at a specific density of 1.080 g/mL. After centrifugation at 400×g for 20 min at 20° C., the plasma, mononuclear cell, and Percoll layers were removed. Erythrocytes were subsequently lysed by addition of 18 mL of ice-cold water for 30 s, followed by 2 mL of 10×PIPES buffer (25 mM PIPES, 110 mM NaCl, and 5 mM KCl, titrated to pH 7.4 with NaOH). Cells were then pelleted at 4° C., the supernatant was decanted, and the procedure was repeated. After the second hypotonic cell lysis, cells were washed twice with PAG buffer [PIPES buffer containing 0.003% human serum albumin (HSA) and 0.1% glucose]. Afterward, PMNs were counted by light microscopy on a hemocytometer. The isolation yielded PMNs with a purity of >95%. The final pellet was then suspended in PAG-CM buffer (PAG buffer with 1 mM CaCl2 and 1 mM MgCl2).
# EPR Measurements. All EPR measurements were performed using a Bruker ER 300 EPR spectrometer operating at X-band with a TM110 cavity as previously described. The microwave frequency was measured with a Model 575 microwave counter (EIP Microwave, Inc., San Jose, Calif.). To measure superoxide anion (O2) generation from phorbol-ester (PMA)-stimulated PMNs, EPR spin-trapping studies were performed using the spin trap DEPMPO (Oxis, Portland, Oreg.) at 10 mM. 1×10^6 PMNs were stimulated with PMA (1 ng/mL) and loaded into capillary tubes for EPR measurements. To determine the radical scavenging ability of 3 and 9 in aqueous and ethanolic formulations, PMNs were pre-incubated for 5 minutes with test compound, followed by PMA stimulation.
# Instrument settings used in the spin-trapping experiments were as follows: modulation amplitude, 0.32 G; time constant, 0.16 s; scan time, 60 s; modulation frequency, 100 kHz; microwave power, 20 milliwatts; and microwave frequency, 9.76 GHz. The samples were placed in a quartz EPR flat cell, and spectra were recorded. The component signals in the spectra were identified and quantified as reported previously.
# [7] = 0.1 mM in 40% EtOH, sodium salt
compound,measurement,setting,value
"C/C(=C\c1ccc(C(=O)O)cc1)c1ccc2c(c1)C(C)(C)CCC2(C)C [TTNPB, tetrahydrotetramethylnaphalenylpropenyl benzoic acid]",CX43 immunoreactive plaques / gap junction assembly,[1],extensive CX43 immunoreactive plaques
same,CX43 protein induction versus solvent-treated controls,[2]; 10^−8 M,about 13 fold
same,increase of dye transfer,[3]; 10^−8 M,6 fold
"CC1=C(/C=C/C(C)=C/C=C/C(C)=C/C=C/C=C(C)/C=C/C=C(C)/C=C/C2=C(C)C(=O)CCC2(C)C)C(C)(C)CCC1=O [CTX, Canthaxanthin]",CX43 immunoreactive plaques,[1]; 10^−5 M,roughly equivalent to that achieved in cells treated with pAST at 10^−6 M
same,CX43 protein induction versus solvent-treated controls,[2]; 10^−5 M,≈ 7 fold
same,increase of dye transfer,[3]; 10^−5 M,4 fold
"CC1=C(/C=C/C(C)=C/C=C/C(C)=C/C=C/C=C(C)/C=C/C=C(C)/C=C/C2=C(C)C(=O)[C@@H](O)CC2(C)C)C(C)(C)C[C@H](O)C1=O [AST, astaxanthin, reference compound]",neoplastic transformation,[4]; 10^−5 M for 4 weeks,strongly inhibited
same,% Inhibition of MCA-induced transformation,[4]; 10^−6 M,41%
same,"Foci/dish (mean Type II + Type III foci, 24 dishes)",[4]; 10^−6 M,0.96 foci/dish
same,% Inhibition of MCA-induced transformation,[4]; 10^−7 M,39%
same,"Foci/dish (mean Type II + Type III foci, 24 dishes)",[4]; 10^−7 M,1.00 foci/dish
same,% Inhibition of MCA-induced transformation,[4]; 10^−8 M,41%
same,"Foci/dish (mean Type II + Type III foci, 24 dishes)",[4]; 10^−8 M,0.96 foci/dish
same,foci/dish,[4]; all concentrations tested,0.98 foci/dish
same,CX43 immunoreactive plaques at regions of cell/cell apposition,[1]; 10^−6 M,few immunoreactive plaques
same,CX43 immunoreactive plaques / gap junction assembly,[1],comparable to untreated cultures
same,water dispersibility,[5],insoluble in water
same,CX43 protein induction versus solvent-treated controls,[2]; 10^−5 M,no change
same,CX43 protein induction versus solvent-treated controls,[2]; 10^−6 M,No change
same,CX43 protein induction versus solvent-treated controls,[2]; 10^−7 M,No change
same,GJIC dye transfer,[3]; 10^−6 M,below that observed in untreated control cultures
same,GJIC dye transfer,[3]; 10^−7 M,roughly equivalent to that achieved in cultures treated with pAST
"β,ε-carotenyl 3,3′-disuccinate sodium salt [Lutein Disuccinate Sodium Salt]",aqueous solubility/dispersibility,[5],2.85 mg/mL
same,Mean (% inhibition) of superoxide anion signal,"[6]; 0.1 mM in 40% EtOH, listed as disodium disuccinate derivative of natural source lutein, sodium salt",did not significantly increase scavenging over that provided by the EtOH vehicle alone
same,Mean (% inhibition) of superoxide anion signal,[6]; [7],5.0%
same,Mean (% inhibition) of superoxide anion signal,[6]; 0.1 mM in water,0%
same,Mean (% inhibition) of superoxide anion signal,[6]; 1.0 mM in water,13.0%
same,Mean (% inhibition) of superoxide anion signal,[6]; 3.0 mM in water,61.7%
same,Mean (% inhibition) of superoxide anion signal,"[6]; 5.0 mM in water, listed as disodium disuccinate derivative of natural source lutein, sodium salt",~75%
same,Mean (% inhibition) of superoxide anion signal,"[6]; 5.0 mM in water, listed as disuccinate lutein sodium salt, sodium salt",75%
same,Mean (% inhibition) of superoxide anion signal,"[6]; 5.0 mM in water, sodium salt",74.7%
"3,3′-Diphosphoryloxy-β,ε-carotene sodium salt [Lutein Diphosphate Sodium Salt]",Mean (% inhibition) of superoxide anion signal,"[6]; 0.1 mM in 40% EtOH, listed as disodium diphosphate derivative of natural source lutein, sodium salt",18%
same,Mean (% inhibition) of superoxide anion signal,[6]; [7],18.0%
same,Mean (% inhibition) of superoxide anion signal,"[6]; 0.1 mM in water, listed as disodium diphosphate derivative of natural source lutein, sodium salt",0%
same,Mean (% inhibition) of superoxide anion signal,[6]; 1.0 mM in water,9.3%
same,Mean (% inhibition) of superoxide anion signal,[6]; 3.0 mM in water,72.3%
same,Mean (% inhibition) of superoxide anion signal,"[6]; 5.0 mM in water, listed as disodium diphosphate derivative of natural source lutein, sodium salt",more than 90%
same,Mean (% inhibition) of superoxide anion signal,"[6]; 5.0 mM in water, sodium salt",91.0%
